Measurements reported in US12435087B2, “Modulators of DCN-1 and methods of use thereof” (Cellarity, Inc., priority 2023, dated 2025).
pIC50: −log10 of the molar value. Where two headings read alike, the source gives them in different places.

Target: DCN1 (DCUND1) protein PONY domain (Homo sapiens (Human), UniProt Q96GG9)
Assay: TR-FRET assay (binding to DCN-1, displacement of FAM-labeled probe)
Conditions: for IC50: TR FRET IC50 1 hr (nM)
Source text: (§1) The TR-FRET assay was designed following the Scott et al. protocol (Scott et al., Nat Chem Biol. 2017 August; 13(8): 850-857. doi:10.1038/nchembio.2386). The recombinant form of the DCN1 (DCUND1) protein PONY domain was produced using an E. coli expression system at Viva Biotech (China). The DCN1 protein was biotinylated (EZ sulfo-NHS-LC-biotin; Thermofisher) for labeling with streptavidin terbium (Tb) cryptate in the reaction. The probe was changed to a non-covalent DCN1 inhibitor labeled with carboxyfluorescein (FAM; Zhou et al., Nat Commun. 2017; 8: 1150. doi: 10.1038/s41467-017-01243-7). Buffer conditions were modified to enhance protein stability by exchanging Tween20 for TritonX and increasing NaCl to 200 mM. The compounds were screened against 5 nM DCN1 and 20 nM FAM-probe or 0.31 nM DCN1 and 900 nM total probe (100 nM FAM-labeled plus 800 nM unlabeled). The TR-FRET ratio between Tb-DCN1 and the FAM-labeled probe was measured in a 384-well opti-plate (Perkin Elmer) using a plate reader (BMG) at 1, 5, and 24 hrs after treatment with compound (final DMSO concentration of 0.1%). The ratio was normalized to the high (DCN1 and FAM-probe) and low (DCN1 and no probe) controls for a readout of % activity (=100*(x−low)/(high−low).
A TR-FRET assay was performed to evaluate the ability of the compounds to bind the DCN-1 protein.
as §1, with “850-857. Doi: 10.1038/nchembio.2386).” for “850-857. doi:10.1038/nchembio.2386).”, “the DCNI” for “the DCN1”, “1150. Doi:” for “1150. doi:”, “0.1%).” for “0.1%). The ratio was normalized to the high (DCN1 and FAM-probe) and low (DCN1 and no probe) controls for a readout of % activity (=100*(x−low)/(high−low).”

[1] = 24 hr after treatment with compound, read-out: TR FRET IC50 24 hr
[2] = 1 hr after treatment with compound
[3] = read-out: TR FRET IC50 1 hr, 1 hr after treatment with compound

Sequence of DCN1 (DCUND1) protein PONY domain (Q96GG9 60-248): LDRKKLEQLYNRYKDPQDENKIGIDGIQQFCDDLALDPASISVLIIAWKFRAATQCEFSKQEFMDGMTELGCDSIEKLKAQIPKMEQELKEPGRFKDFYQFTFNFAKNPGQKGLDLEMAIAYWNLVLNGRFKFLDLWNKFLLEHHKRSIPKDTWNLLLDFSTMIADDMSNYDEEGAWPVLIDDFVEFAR

SMILES	pIC50 [1]	IC50 [2]	pIC50 [3]
CCN1C(=O)[C@@H](NC(=O)c2cccc(C(F)(F)F)c2)[C@H](c2cc(NC(=O)/C=C/CN(C)C)ccc2F)c2cnn(-c3ccccc3)c21 (racemic) [Compound I-79]	6.00 to 6.70	1000 to 3000 nM	–
CCN1C(=O)[C@@H](NC(=O)c2cccc(C(F)(F)F)c2)[C@@H](c2cncc(NC(=O)/C=C/CN(C)C)c2)c2cnn(-c3ccccc3)c21 [Compound I-329]	5.52 to 6.00	1000 to 3000 nM	–
CCN1C(=O)[C@@H](NC(=O)c2nccc(C(F)(F)F)n2)[C@H](c2cccc(NC(=O)/C=C/C(=O)OC(C)(C)C)c2)c2c(C)nn(-c3ccccc3)c21 (racemic) [Compound I-359, rac-tert-butyl (E)-4-((3-((4R,5S)-7-ethyl-3-methyl-6-oxo-1-phenyl-5-(4-(trifluoromethyl)pyrimidine-2-carboxamido)-4,5,6,7-tetrahydro-1H-pyrazolo[3,4-b]pyridin-4-yl)phenyl)amino)-4-oxobut-2-enoate]	≥ 6.70	1000 to 3000 nM	–
C=C(CN1CC2(COC2)C1)C(=O)NCc1cccc([C@H]2c3cnn(-c4ccccc4)c3N(CC)C(=O)[C@H]2NC(=O)c2cccc(C(F)(F)F)c2)c1 [Compound I-156]	6.00 to 6.70	1000 to 3000 nM	–
C/C=C(\CN1CCOCC1)C(=O)NCc1cccc([C@@H]2c3cnn(-c4ccccc4)c3N(CC)C(=O)[C@H]2NC(=O)c2cccc(C(F)(F)F)c2)c1 [Compound I-152]	≥ 6.70	1000 to 3000 nM	–
C=C(CN1CCN(C2COC2)CC1)C(=O)NCc1cccc([C@@H]2c3cnn(-c4ccccc4)c3N(CC)C(=O)[C@H]2NC(=O)c2ccn(C(F)(F)F)n2)c1 [Compound I-356]	≥ 6.70	–	≥ 6.70
C/C=C(/C)S(=O)(=O)Nc1cccc([C@H]2c3c(C)nn(-c4ccccc4)c3N(CC)C(=O)[C@@H]2NC(=O)c2cccc(C(F)(F)F)c2)c1 (racemic) [Compound I-127]	5.52 to 6.00	1000 to 3000 nM	–
CCN1C(=O)[C@H](NC(=O)c2cccc(C(F)(F)F)c2)[C@@H](c2ccccc2-n2sccc2=O)c2cnn(-c3ccccc3)c21 (racemic) [Compound I-89, ˜{N}—[˜{rac}-(4˜{S},5˜{R})-7-ethyl-6-oxo-4-[2-(3-oxoisothiazol-2-yl)phenyl]-1-phenyl-4,5-dihydropyrazolo[3,4-b]pyridin-5-yl]-3-(trifluoromethyl)benzamide]	5.52 to 6.00	1000 to 3000 nM	–
C=C(C(=O)N(C)Cc1cccc([C@@H]2c3cnn(-c4ccccc4)c3N(CC)C(=O)[C@H]2NC(=O)c2ccn(C3CC3)n2)c1)C(C)N1CCC12COC2 (some centres unmarked) [Compound I-343]	6.00 to 6.70	1000 to 3000 nM	–
C=C(CN(C)C1COC1)C(=O)N(C)Cc1cccc([C@@H]2c3cnn(-c4ccccc4)c3N(CC)C(=O)[C@H]2NC(=O)c2csc(C(F)(F)F)n2)c1 [Compound I-318]	≥ 6.70	200 to 1000 nM	–
C=C(CN1CC(F)(F)C1)C(=O)NCc1cccc([C@H]2c3cnn(-c4ccccc4)c3N(CC)C(=O)[C@@H]2NC(=O)c2cccc(C(F)(F)F)c2)c1 [Compound I-96]	5.52 to 6.00	1000 to 3000 nM	–
CCN1C(=O)[C@@H](NC(=O)c2cccc(C(F)(F)F)c2)[C@H](c2cccc(NC(=O)C3=CCC3)c2)c2c(C)nn(-c3ccccc3)c21 [Compound I-70, N-((4R,5S)-4-(3-(cyclobut-1-ene-1-carboxamido)phenyl)-7-ethyl-3-methyl-6-oxo-1-phenyl-4,5,6,7-tetrahydro-1H-pyrazolo[3,4-b]pyridin-5-yl)-3-(trifluoromethyl)benzamide]	6.00 to 6.70	1000 to 3000 nM	–
C/C=C(\CN1CCOCC1)C(=O)NCc1cccc([C@@H]2c3cnn(-c4ccccc4)c3N(CC)C(=O)[C@H]2NC(=O)c2nccc(C(F)(F)F)n2)c1 [Compound I-363]	≥ 6.70	200 to 1000 nM	–
C/C=C(/C(=O)Nc1cccc([C@@H]2c3cnn(-c4ccccc4)c3N(CC)C(=O)[C@H]2NC(=O)c2nccc(C(F)(F)F)n2)c1)C(C)N1CCC1 (some centres unmarked) [Compound I-385]	5.52 to 6.00	1000 to 3000 nM	–
CCN1C(=O)[C@@H](NC(=O)c2cccc(C(F)(F)F)c2)[C@H](c2cccc(NC(=O)/C=C/CN(C)C)c2F)c2cnn(-c3ccccc3)c21 (racemic) [Compound I-56]	≥ 6.70	200 to 1000 nM	–
CCN1C(=O)[C@@H](NC(=O)c2nccc(C(F)(F)F)n2)[C@H](c2cccc(NC(=O)/C=C/C(=O)N(C)C)c2)c2c(C)nn(-c3ccccc3)c21 [Compound I-245]	5.52 to 6.00	1000 to 3000 nM	–
C/C=C(\CN1CCC12COC2)C(=O)Nc1cccc([C@@H]2c3cnn(-c4ccccc4)c3N(CC)C(=O)[C@H]2NC(=O)c2nccc(C(F)(F)F)n2)c1 [Compound I-251]	≥ 6.70	1000 to 3000 nM	–
C/C=C/S(=O)(=O)Nc1cccc([C@H]2c3c(C)nn(-c4ccccc4)c3N(CC)C(=O)[C@@H]2NC(=O)c2cccc(C(F)(F)F)c2)c1 (racemic) [Compound I-131]	≥ 6.70	200 to 1000 nM	–
C=C(CN1CCC(C)(O)C1)C(=O)NCc1cccc([C@@H]2c3cnn(-c4ccccc4)c3N(CC)C(=O)[C@H]2NC(=O)c2cccc(C(F)(F)F)c2)c1 (stereo partly drawn) [Compound I-10, N-((4R,5S)-7-ethyl-4-(3-((2-((3-hydroxy-3-methylpyrrolidin-1-yl)methyl)acrylamido)methyl)phenyl)-6-oxo-1-phenyl-4,5,6,7-tetrahydro-1H-pyrazolo[3,4-b]pyridin-5-yl)-3-(trifluoromethyl)benzamide]	≥ 6.70	–	≥ 6.70
CCN1C(=O)[C@@H](NC(=O)c2cccc(C(F)(F)F)c2)[C@H](c2cc(F)cc(NC(=O)/C=C/CN(C)C)c2)c2cnn(-c3ccccc3)c21 [Compound I-151]	≥ 6.70	1000 to 3000 nM	–
CCN1C(=O)[C@@H](NC(=O)c2cccc(C(F)(F)F)c2)[C@H](c2cccc(CNC(=O)/C=C/CN(C)C)c2)c2cnn(-c3ccccc3)c21 (racemic) [Compound I-53]	5.52 to 6.00	1000 to 3000 nM	–
CCN1C(=O)[C@@H](NC(=O)c2cccc(C(F)(F)F)c2)[C@@H](c2ccc(F)c(NC(=O)/C=C/CN(C)C)c2)c2cnn(-c3ccccc3)c21 (racemic) [Compound I-129]	5.52 to 6.00	1000 to 3000 nM	–
CCN1C(=O)[C@H](NC(=O)c2cccc(C(F)(F)F)c2)[C@@H](c2ccccc2N(C)C#N)c2cnn(-c3ccccc3)c21 (racemic) [Compound I-90, ˜{N}—[˜{rac}-(4˜{S},5˜{R})-4-[2-[cyano(methyl)amino]phenyl]-7-ethyl-6-oxo-1-phenyl-4,5-dihydropyrazolo[3,4-b]pyridin-5-yl]-3-(trifluoromethyl)benzamide]	5.52 to 6.00	1000 to 3000 nM	–
CCN1C(=O)C(NC(=O)c2cccc(C(F)(F)F)c2)[C@@H](c2cccc(NC(=O)C(Cl)Cl)c2)c2c(C)nn(-c3ccccc3)c21 (stereo in doubt) [Compound I-42, N-((4S,5R)-4-(3-(2,2-dichloroacetamido)phenyl)-7-ethyl-3-methyl-6-oxo-1-phenyl-4,5,6,7-tetrahydro-1H-pyrazolo[3,4-b]pyridin-5-yl)-3-(trifluoromethyl)benzamide]	5.52 to 6.00	–	< 5.52
C=C(CN1CCOCC1)C(=O)NCc1cccc([C@@H]2c3cnn(-c4ccccc4)c3N(CC)C(=O)[C@H]2NC(=O)c2ccn(C)n2)c1 [Compound I-338]	≥ 6.70	1000 to 3000 nM	–
CCN1C(=O)[C@@H](NC(=O)c2cccc(C(F)(F)F)c2)[C@H](c2cccc(CNC/C=C/C(=O)N3CCCC3)c2)c2cnn(-c3ccccc3)c21 [Compound I-307]	5.52 to 6.00	1000 to 3000 nM	–
C=C(C(=O)N(C)Cc1cccc([C@@H]2c3cnn(-c4ccccc4)c3N(CC)C(=O)[C@H]2NC(=O)c2ccn(C(F)(F)F)n2)c1)C(C)N(C)C1COC1 (some centres unmarked) [Compound I-313]	≥ 6.70	1000 to 3000 nM	–
CCN1C(=O)[C@@H](NC(=O)c2nccc(C(F)(F)F)n2)[C@H](c2cccc(CN3CC=CS3(=O)=O)c2)c2cnn(-c3ccccc3)c21 [Compound I-263, N-((4R,5S)-4-(3-((1,1-dioxidoisothiazol-2 (3H)-yl)methyl)phenyl)-7-ethyl-6-oxo-1-phenyl-4,5,6,7-tetrahydro-1H-pyrazolo[3,4-b]pyridin-5-yl)-4-(trifluoromethyl)pyrimidine-2-carboxamide]	5.52 to 6.00	1000 to 3000 nM	–
